The text below walks through data of US20090099192A1, “Substituted 1H-pyrrole-2,5-diones” (Bayer CropScience AG, priority 2004, published 2009).

This series is described as follows: logP determination by HPLC on reversed-phase column (C 18), EEC Directive 79/831 Annex V.A8. It counts as physicochemical. The following applies: reversed-phase C 18, 43° C., acid range (0.1% aqueous phosphoric acid, acetonitrile), marked a). The procedure:
a) The logP values given in table 1 were determined in accordance with EEC Directive 79/831 Annex V.A8 by HPLC (High Performance Liquid Chromatography) on a reversed-phase column (C 18). Temperature: 43° C. (a) Mobile phases for the determination in the acid range: 0.1% aqueous phosphoric acid, acetonitrile; linear gradient from 10% acetonitrile to 90% acetonitrile—corresponding measurement results are marked a) in table 1. Calibration was carried out using unbranched alkan-2-ones (having 3 to 16 carbon atoms) with known logP values (determination of the logP values by the retention times using linear interpolation between two successive alkanones).
For the molecule `O=C1C(O)=C(c2cccc(OC(F)(F)F)c2)C(=O)N1c1cc(Cl)cc(Cl)c1` [Example 80], the logP entry was “logP = 3.94^a)”.
The result for `Cc1cc(C)c(C2=C(O)C(=O)N(Cc3ccc(OC(F)(F)F)cc3)C2=O)c(C)c1` [Example 81] reads “logP = 4.24^a)”.
The result for `O=C1C(O)=C(c2c(F)cccc2F)C(=O)N1Cc1ccc(OC(F)(F)F)cc1` [Example 82] reads “logP = 3.16^a)”; that for `O=C1C(O)=C(c2ccccc2F)C(=O)N1Cc1ccc(OC(F)(F)F)cc1` [Example 83], “logP = 3.45^a)”; that for `O=C1C(O)=C(c2ccccc2Cl)C(=O)N1Cc1ccc(OC(F)(F)F)cc1` [Example 84], “logP = 3.56^a)”.
In the case of `O=C1C(O)=C(c2cccc(C(F)(F)F)c2)C(=O)N1Cc1ccc(OC(F)(F)F)cc1` [Example 85], the logP result is listed as “logP = 4.15^a)”.
`O=C1C(O)=C(c2ccc(OC(F)(F)F)cc2)C(=O)N1Cc1ccc(OC(F)(F)F)cc1` [Example 86]: the logP result was “logP = 4.48^a)”.
On to `N#Cc1ccc(C2=C(O)C(=O)N(Cc3ccc(OC(F)(F)F)cc3)C2=O)cc1` [Example 87], for which the logP result was “logP = 2.85^a)”.
As to `O=C1C(O)=C(c2ccc(Cl)cc2)C(=O)N1Cc1ccc(OC(F)(F)F)cc1` [Example 88], the logP entry is recorded as “logP = 4.27^a)”.
As for `O=C1C(O)=C(c2ccc(C(F)(F)F)cc2)C(=O)N1Cc1ccc(OC(F)(F)F)cc1` [Example 89], the logP entry is reported as “logP = 4.03^a)”.
Take `O=C1C(O)=C(c2cccc(OC(F)(F)F)c2)C(=O)N1Cc1ccc(OC(F)(F)F)cc1` [Example 90]: the logP result was “logP = 4.30^a)”.
The result for `O=C1C(O)=C(c2cc(Cl)cc(Cl)c2)C(=O)N1Cc1ccc(OC(F)(F)F)cc1` [Example 91] reads “logP = 4.12^a)”; that for `Cc1ccc(C2=C(O)C(=O)N(Cc3ccc(OC(F)(F)F)cc3)C2=O)cc1` [Example 92], “logP = 4.27^a)”; that for `Cc1cc(C)c(C2=C(O)C(=O)N(Cc3ccccc3F)C2=O)c(C)c1` [Example 93], “logP = 3.51^a)”.
For `O=C1C(O)=C(c2c(F)cccc2F)C(=O)N1Cc1ccccc1F` [Example 94], the logP result is listed as “logP = 2.49^a)”.
For `O=C1C(O)=C(c2ccccc2F)C(=O)N1Cc1ccccc1F` [Example 95], the logP result is “logP = 2.82^a)”.
With `O=C1C(O)=C(c2cccc(C(F)(F)F)c2)C(=O)N1Cc1ccccc1F` [Example 96], the logP entry is given as “logP = 3.48^a)”.
With `O=C1C(O)=C(c2ccc(OC(F)(F)F)cc2)C(=O)N1Cc1ccccc1F` [Example 97], the logP result is “logP = 3.83^a)”.
On to `N#Cc1ccc(C2=C(O)C(=O)N(Cc3ccccc3F)C2=O)cc1` [Example 98], for which the logP entry is “logP = 2.31^a)”.
In the case of `O=C1C(O)=C(c2ccc(Cl)cc2)C(=O)N1Cc1ccccc1F` [Example 99], the logP result is “logP = 3.56^a)”.
Turning to `O=C1C(O)=C(c2ccc(C(F)(F)F)cc2)C(=O)N1Cc1ccccc1F` [Example 100], the logP result is listed as “logP = 3.40^a)”.
Turning to `O=C1C(O)=C(c2cccc(OC(F)(F)F)c2)C(=O)N1Cc1ccccc1F` [Example 101], the logP result is given as “logP = 3.64^a)”.
As to `O=C1C(O)=C(c2cc(Cl)cc(Cl)c2)C(=O)N1Cc1ccccc1F` [Example 102], the logP entry is listed as “logP = 3.48^a)”.
Regarding `Cc1ccc(C2=C(O)C(=O)N(Cc3ccccc3F)C2=O)cc1` [Example 103], the logP entry is reported as “logP = 3.51^a)”.
For the molecule `Cc1cc(C)c(C2=C(O)C(=O)N(Cc3c(F)cccc3F)C2=O)c(C)c1` [Example 104], the logP result was “logP = 3.48^a)”.
The entry for `O=C1C(O)=C(c2cc(Cl)cc(Cl)c2)C(=O)N1Cc1c(F)cccc1F` [Example 109] is “logP = 3.20^a)”.
Regarding `O=C1C(O)=C(c2ccccc2F)C(=O)N1Cc1cc(Cl)cc(Cl)c1` [Example 110], the logP entry is “logP = 3.56^a)”.
Consider `O=C1C(O)=C(c2ccccc2Cl)C(=O)N1Cc1cc(Cl)cc(Cl)c1` [Example 111], for which the logP entry is listed as “logP = 3.67^a)”.
